{
  "source": "patent US20100256179A1",
  "about": "“COMBINATION THERAPY FOR PAIN IN PAINFUL DIABETIC NEUROPATHY” (UCB PHARMA GMBH, priority 2004, published 2010)",
  "tested_on": "formalin-induced flinching and licking response of the affected paw",
  "experiment": "rat formalin paw test (late phase)",
  "type": "in vivo",
  "conditions": "for decrease in number of flinches as compared with vehicle controls: non-significant",
  "experimental": "Rats were given an intraplantar injection of 5% formalin (50 μl) into the posterior left paw. This treatment induces a recognizable flinching and licking response of the affected paw in control animals. The number of flinches was counted for 15 minutes, beginning 20 minutes after injection of formalin. The time spent licking the affected paw was also recorded.\nMale Rj: Wistar (Han) rats, 10 per group, weighing 100-130 g at the beginning of the experiments were studied per group. The test was performed blind.",
  "key": {"[1]": {"conditions": "Example 4, duloxetine 8 mg/kg i.p."}, "[2]": {"conditions": "Example 3, morphine 2 mg/kg i.p."}, "[3]": {"conditions": "Example 3, morphine 4 mg/kg i.p."}, "[4]": {"conditions": "Example 2, gabapentin 50 mg/kg i.p."}, "[5]": {"conditions": "Example 2, gabapentin 100 mg/kg i.p."}, "[6]": {"conditions": "Example 2, gabapentin alone at 50 mg/kg"}, "[7]": {"conditions": "Example 5, memantine 4 mg/kg i.p."}, "[8]": {"conditions": "Example 5, memantine 8 mg/kg i.p."}},
  "data": [
    {"smiles": "CNCC[C@H](Oc1cccc2ccccc12)c1cccs1", "note": "[Duloxetine]", "values": [
      {"measurement": "effects on number of flinches and time spent licking", "setting": "Example 4, duloxetine 8 mg/kg alone", "value": "no clear effects"},
      {"measurement": "Licking time % change (a): compared with vehicle control", "setting": "[1]", "value": "−26% (a)"},
      {"measurement": "Licking time (seconds) mean ± SEM", "setting": "[1]", "value": "195.5 ± 45.0", "unit": "s"},
      {"measurement": "No. of flinches % change (a): compared with vehicle control", "setting": "[1]", "value": "−1% (a)"},
      {"measurement": "No. of flinches mean ± SEM", "setting": "[1]", "value": "149.6 ± 27.3"}
    ]},
    {"smiles": "CN1CC[C@]23c4c5ccc(O)c4O[C@H]2[C@@H](O)C=C[C@H]3[C@H]1C5", "note": "[Morphine]", "values": [
      {"measurement": "Licking time % change (a): compared with vehicle control", "setting": "[2]", "value": "−1% (a)"},
      {"measurement": "Licking time (seconds) mean ± SEM", "setting": "[2]", "value": "289.3 ± 30.7", "unit": "s"},
      {"measurement": "No. of flinches % change (a): compared with vehicle control", "setting": "[2]", "value": "−7% (a)"},
      {"measurement": "No. of flinches mean ± SEM", "setting": "[2]", "value": "139.5 ± 25.3"},
      {"measurement": "Licking time % change (a): compared with vehicle control", "setting": "[3]", "value": "−20% (a)"},
      {"measurement": "Licking time (seconds) mean ± SEM", "setting": "[3]", "value": "234.9 ± 37.3", "unit": "s"},
      {"measurement": "No. of flinches % change (a): compared with vehicle control", "setting": "[3]", "value": "−37% (a)"},
      {"measurement": "No. of flinches mean ± SEM", "setting": "[3]", "value": "94.3 ± 21.1"},
      {"measurement": "number of flinches and time spent licking as compared with vehicle controls", "setting": "Example 3, morphine alone at 2 and 4 mg/kg, effects did not reach statistical significance", "value": "dose-dependently decreased"}
    ]},
    {"smiles": "NCC1(CC(=O)O)CCCCC1", "note": "[Gabapentin]", "values": [
      {"measurement": "Licking time % change (a): compared with vehicle control", "setting": "[4]", "value": "−28% (a)"},
      {"measurement": "Licking time (seconds) mean ± SEM", "setting": "[4]", "value": "161.0 ± 27.3", "unit": "s"},
      {"measurement": "No. of flinches % change (a): compared with vehicle control", "setting": "[4]", "value": "−24% (a)"},
      {"measurement": "No. of flinches mean ± SEM", "setting": "[4]", "value": "97.4 ± 23.8"},
      {"measurement": "Licking time % change (a): compared with vehicle control", "setting": "[5]", "value": "−60% (a)"},
      {"measurement": "Licking time (seconds) mean ± SEM", "setting": "[5]", "value": "90.0 ± 22.5", "unit": "s"},
      {"measurement": "No. of flinches % change (a): compared with vehicle control", "setting": "[5]", "value": "−31% (a)"},
      {"measurement": "No. of flinches mean ± SEM", "setting": "[5]", "value": "88.1 ± 19.4"},
      {"measurement": "decrease in time spent licking", "setting": "[6]", "value": 28, "unit": "%"},
      {"measurement": "decrease in number of flinches as compared with vehicle controls", "setting": "[6]", "value": 24, "unit": "%"},
      {"measurement": "decrease in number of flinches as compared with vehicle controls", "setting": "Example 2, gabapentin alone at 100 mg/kg", "value": 31, "unit": "%"},
      {"measurement": "decrease in time spent licking", "setting": "Example 2, gabapentin alone at 100 mg/kg, p<0.05", "value": 60, "unit": "%"}
    ]},
    {"smiles": "CC12CC3CC(C)(C1)CC(N)(C3)C2", "note": "[Memantine]", "values": [
      {"measurement": "Licking time % change (a): compared with vehicle control", "setting": "[7]", "value": "+25% (a)"},
      {"measurement": "Licking time (seconds) mean ± SEM", "setting": "[7]", "value": "219.9 ± 21.8", "unit": "s"},
      {"measurement": "No. of flinches % change (a): compared with vehicle control", "setting": "[7]", "value": "−3% (a)"},
      {"measurement": "No. of flinches mean ± SEM", "setting": "[7]", "value": "161.4 ± 26.3"},
      {"measurement": "Licking time % change (a): compared with vehicle control", "setting": "[8]", "value": "+35% (a)"},
      {"measurement": "Licking time (seconds) mean ± SEM", "setting": "[8]", "value": "237.3 ± 18.9", "unit": "s"},
      {"measurement": "No. of flinches % change (a): compared with vehicle control", "setting": "[8]", "value": "−20% (a)"},
      {"measurement": "No. of flinches mean ± SEM", "setting": "[8]", "value": "132.3 ± 24.6"},
      {"measurement": "increase in time spent licking", "setting": "Example 5, memantine alone at 4 mg/kg, p=0.0537", "value": 25, "unit": "%"},
      {"measurement": "increase in time spent licking", "setting": "Example 5, memantine alone at 8 mg/kg, p<0.05", "value": 35, "unit": "%"},
      {"measurement": "number of flinches as compared with vehicle controls", "setting": "Example 5, memantine alone at 4 and 8 mg/kg", "value": "did not clearly affect"}
    ]}
  ]
}
